Data as given in patent US20040127537A1 (priority 2002, published 2004).

Tests used:
[1] = Example 6: buffer capacity titration of parecoxib sodium formulations with added buffer; assay type: physicochemical; settings: for Improvement in buffer capacity: parecoxib sodium 40 mg/ml f.a.e., acid to adjust pH 8.5 to 7.4, with versus without buffer; for effect of added buffer on buffer capacity: parecoxib sodium formulations tested, PEG 600/WFI
Experimental: The amount of titrant used to titrate each parecoxib sodium/buffer solution was compared with that required to titrate a parecoxib solution without buffer. Percent improvement in buffer capacity was determined by comparing the amount of acid required to adjust pH from 8.5 to 7.4 in the presence versus absence of buffer.

[2] = Example 6: solubility of buffers in PEG 600/water solvent liquid; assay type: physicochemical; settings: solvent liquid 65% PEG 600 and 35% water, room temperature
[3] = Example 3: stability of parecoxib sodium in PEG-containing solvent liquids; assay type: physicochemical; settings: 70° C., 7 days, FIG. 3
Experimental: (§1) The procedure was similar to that of Example 1. Valdecoxib formed was calculated as a percentage of parecoxib initially present.

[4] = Example 2: stability of parecoxib sodium in solvent liquids with different solubilizers; assay type: physicochemical; settings: 55° C., 3 days, FIG. 2
Experimental: as §1

[5] = Example 4: storage stability of liquid formulations LF1-LF9 (valdecoxib formed, HPLC); assay type: physicochemical; settings: PEG/water formulations of Example 4 (PEG 300, 400, 600)
Experimental: Each vial was flushed with nitrogen gas prior to stoppering.
Valdecoxib was measured by HPLC and was calculated as a percentage of parecoxib initially present.

[6] = Example 1: stability of parecoxib sodium in candidate solubilizers (valdecoxib formed, HPLC); assay type: physicochemical; settings: 40 mg/ml f.a.e., 70° C., 7 days, FIG. 1
Experimental: Formulations were prepared and sealed in Type I vials. […] Valdecoxib formed was calculated as a percentage of parecoxib initially present.

[7] = conversion of parecoxib to valdecoxib after parenteral administration; assay type: in vivo; settings: human subject
Text: The term “equal” in this context means equal in molar amount or in absolute amount (i.e., in weight).

[8] = precipitation of parecoxib free acid on downward pH drift of composition; assay type: physicochemical; settings: parecoxib salt composition, downward pH drift on storage
Text: Presence of precipitated parecoxib free acid in a parenteral composition is undesirable as it can cause local pain and irritation upon injection.

COX-1 = COX-1 (Homo sapiens, UniProt P23219); settings: cited from earlier work
[9] = cited from earlier work

Chain of COX-1 (P23219 24-599): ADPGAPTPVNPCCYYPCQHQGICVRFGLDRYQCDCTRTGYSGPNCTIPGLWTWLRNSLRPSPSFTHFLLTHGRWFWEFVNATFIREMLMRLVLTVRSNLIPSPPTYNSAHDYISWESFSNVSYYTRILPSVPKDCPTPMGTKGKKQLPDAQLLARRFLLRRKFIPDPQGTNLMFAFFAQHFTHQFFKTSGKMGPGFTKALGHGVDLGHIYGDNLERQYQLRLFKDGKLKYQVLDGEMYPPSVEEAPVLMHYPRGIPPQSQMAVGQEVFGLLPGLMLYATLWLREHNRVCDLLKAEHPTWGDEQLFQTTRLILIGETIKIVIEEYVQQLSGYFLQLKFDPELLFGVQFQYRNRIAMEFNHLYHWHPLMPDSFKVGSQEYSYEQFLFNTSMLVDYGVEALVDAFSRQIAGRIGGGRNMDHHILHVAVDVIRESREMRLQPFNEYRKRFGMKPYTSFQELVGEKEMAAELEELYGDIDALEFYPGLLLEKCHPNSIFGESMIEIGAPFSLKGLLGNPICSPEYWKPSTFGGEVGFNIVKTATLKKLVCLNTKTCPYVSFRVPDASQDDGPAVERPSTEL

SMILES: N=C(N)NCCC[C@H](N)C(=O)O [L-arginine]
- Improvement in buffer capacity ([1]; PEG 600/WFI 65/35 % by weight): negligible

SMILES: NCC(=O)O [glycine]
- Improvement in buffer capacity ([1]; PEG 600/WFI 55/45 % by weight): negligible
- Improvement in buffer capacity ([1]; PEG 600/WFI 65/35 % by weight): negligible

SMILES: N[C@@H](Cc1c[nH]cn1)C(=O)O [histidine]
- Solubility > 0.01 M [2]: no

SMILES: CCC(=O)NS(=O)(=O)c1ccc(-c2c(-c3ccccc3)noc2C)cc1 [parecoxib sodium]
- stability (valdecoxib formed) ([3]; 65% PEG 300, PEG 400 or PEG 600 in water): acceptably stable
- valdecoxib formed, comparison of PEG grades ([3]; 65% PEG 600 or PEG 400 versus 65% PEG 300 in water): less valdecoxib formed
- stability (valdecoxib formed) ([4]; propylene glycol containing solvent liquids): less so
- stability (valdecoxib formed) ([4]; solvent liquids comprising PEG 300, ethanol or DMAC, with or without water): stable
- conversion to valdecoxib ([4]; solvent liquids comprising glycerin): significant conversion to valdecoxib
- buffering effect of parecoxib sodium itself ([1]; less concentrated PEG solutions): weaker buffering effect
- buffering effect of parecoxib sodium itself ([1]; more highly concentrated PEG solutions): excellent buffer
- parecoxib sodium stability as a function of PEG molecular weight [5]: increases with increasing PEG molecular weight
- valdecoxib formed (stability) ([6]; PEG 300, DMAC, 95% ethanol or 10 mM phosphate buffer pH 8.1 versus propylene glycol): less valdecoxib was formed
- conversion of parecoxib to valdecoxib ([6]; in presence of glycerin): very rapid

SMILES: CCC(=O)NS(=O)(=O)c1ccc(-c2c(-c3ccccc3)noc2C)cc1 [parecoxib, N-[[4-(5-methyl-3-phenylisoxazol-4-yl)phenyl]sulfonyl]propanamide]
- conversion to valdecoxib after parenteral administration [7]: rapidly and completely converted to valdecoxib
- pH of the composition below which parecoxib precipitates in free acid form [8]: below 7.4
- in vitro inhibitory activity against COX-1 (COX-1): weak in vitro inhibitory activity

SMILES: CC(=O)[O-].[Na+] [sodium acetate]
- Improvement in buffer capacity ([1]; PEG 600/WFI 55/45 % by weight): negligible
- Improvement in buffer capacity ([1]; PEG 600/WFI 65/35 % by weight): negligible

SMILES: O=C1O[C@H]([C@@H](O)CO)C([O-])=C1O.[Na+] [sodium ascorbate]
- Improvement in buffer capacity ([1]; PEG 600/WFI 65/35 % by weight): 14-37%^1
- effect of added buffer on buffer capacity [1]: further improved buffer capacity

SMILES: CC(O)C(=O)[O-].[Na+] (stereo not drawn) [sodium lactate]
- Improvement in buffer capacity ([1]; PEG 600/WFI 65/35 % by weight): negligible

SMILES: O=C([O-])/C=C\C(=O)[O-].[Na+].[Na+] [sodium maleate]
- Improvement in buffer capacity ([1]; PEG 600/WFI 65/35 % by weight): 21%
- effect of added buffer on buffer capacity [1]: further improved buffer capacity

SMILES: NC(CO)(CO)CO [tris, 2-amino-2-(hydroxymethyl)-1,3-propanediol]
- Solubility > 0.01 M [2]: yes
- Improvement in buffer capacity ([1]; PEG 600/WFI 55/45 % by weight): 229%
- Improvement in buffer capacity ([1]; PEG 600/WFI 65/35 % by weight): 63%
- effect of added buffer on buffer capacity [1]: further improved buffer capacity

SMILES: Cc1onc(-c2ccccc2)c1-c1ccc(S(N)(=O)=O)cc1 [valdecoxib]
- solubility in water [9]: about 10 μg/ml
- in vitro inhibitory activity against COX-1 (COX-1): weak inhibitor
